Test results from paper PMC5778160, “Functional genomics analysis reveals the biosynthesis pathways of important cellular components (alginate and fucoidan) of Saccharina” (Current Genetics, 2017).

B1: SjaPMM (Saccharina japonica) (protein)
chain: MSVTKNPRIIALFDVDGTLTAARKEVLPDMVEFIKTLRERITIGVVGGSDLPKQKEQLGESVMEDYDYSFSQNGLVAYKAGELIGQQTISKHVGEENLKKIINWVLKYMSGIDIPVKRGTFIEFRTGMLNISPVGRNCSQEERDAFEQYDNVHKIRETMVAAMREEFADLNLTFSIGGQISFDLFPTGWDKTFCLQFLGEGTAEYDEIHFFGDKTFKGGNDNEIFESERTIGHTVTSPADTIQQCKELFFKD
notes: synthesized gene, pET32a, E. coli BL21(DE3), His-resin purified

Key:
EsiGMD3 = system: T1, EsiGMD3; assay: enzyme kinetics (GDP-mannose dehydrogenase activity); assay type: biochemical, Ectocarpus siliculosus; conditions: read-out: NAD / k m; co-substrate GDP-mannose; optimum pH 8.75, 30–37 °C; unit as in table header, probably a misprint for μM; heading: NAD / k m
T1 construct: gene GMD3; synthesized gene, pET32a, E. coli BL21(DE3), His-resin purified
Excerpt: enzyme kinetics (GDP-mannose dehydrogenase activity) on EsiGMD3

EsiGMD2 = system: T2, EsiGMD2; assay: as above; assay type: biochemical, Ectocarpus siliculosus; conditions: read-out: NAD / k m; co-substrate GDP-mannose; optimum pH 8.75–9, 30–37 °C; unit as in table header, probably a misprint for μM; heading: NAD / k m
T2 construct: gene GMD2; synthesized gene, pET32a, E. coli BL21(DE3), His-resin purified
Excerpt: enzyme kinetics (GDP-mannose dehydrogenase activity) on EsiGMD2

[1] = substrate: O=P(O)(O)O[C@H]1O[C@H](CO)[C@@H](O)[C@H](O)[C@@H]1O; assay: enzyme kinetics, double reciprocal plot (phosphomannomutase activity); assay type: biochemical, Saccharina japonica; conditions: optimum pH 7.4, 25 °C
[2] = substrate: O=P(O)(O)O[C@H]1O[C@H](CO)[C@@H](O)[C@H](O)[C@H]1O; assay: enzyme kinetics, double reciprocal plot (phosphoglucomutase activity); assay type: biochemical, Saccharina japonica; conditions: optimum pH 7.0, 30 °C

Molecule	Km (EsiGMD3)	Km (EsiGMD2)	Km [1]	Km [2]
NC(=O)c1ccc[n+]([C@@H]2O[C@H](COP(=O)(O)OP(=O)(O)OC[C@H]3O[C@@H](n4cnc5c(N)ncnc54)[C@H](O)[C@@H]3O)[C@@H](O)[C@H]2O)c1 [NAD]	43.5 µM	79.6 µM		
B1			699.41 µM	41.04 µM
